Results: patent US10828315B2 (Madrigal Pharmaceuticals, Inc., priority 2013, dated 2020)
In brackets after ≈: the same amount, converted by molar mass.

How the values were obtained:
[1] = test system: human urinary bladder cancer cell line RT-112; experiment: Cytotoxicity assay (CellTiter-Glo, 72 h), RT-112; format: cell-based; conditions: RT-112, 72 hours, read-out: Cytotoxicity (IC50, nM) RT-112
Procedure: (§1) Cytotoxicity of SDC-TRAP molecules was determined in three cancer cell lines. […] 80 μL of CellTiter-Glo was added to each well, followed by room temperature incubation in the dark for 15 minutes. Cell was determined by luminescence. IC50 was calculated using XLfit™ software.

[2] = test system: human urinary bladder cancer cell line SW780; experiment: Cytotoxicity assay (CellTiter-Glo, 72 h), SW780; format: cell-based; conditions: SW780, 72 hours, read-out: Cytotoxicity (IC50, nM) SW-780
Procedure: as §1

[3] = Solubility of SDC-TRAP-0063 (ganetespib placebo formulation, PEG-300); format: physicochemical; conditions: for solubility at 1 h / solubility at 1 day / solubility at 3 days / solubility at 7 days: ganetespib placebo formulation, organic solvent or mixture, thermodynamic from solid
Procedure: Concentration of dissolved drug was determined by HPLC assay method at 1 hr, 1 day, 3 days and 7 days.

[4] = test system: Hsp90 client proteins (EGFR, MET, CDC2), Hsp70, DNA damage markers; experiment: Pharmacodynamics in SCLC xenograft tumors; format: in vivo
[5] = Metabolite profiling and identification; format: in vitro ADME; design: key: —: Not detected; conditions: for Metabolite Hydrolysis (SN-38): M+1 393.3; for Metabolite Hydrolysis (SN-38) + H2O (carboxylate form): M+1 411.3; for Metabolite Hydrolysis (SDC-TRAP-0062): M+1 462.3; for Metabolite Hydrolysis (SDC-TRAP-0062) + N-dealkylation + glucuronide: M+1 527.3; for Metabolite Hydrolysis (SN-38) + glucuronidation: M+1 569.3; for Metabolite Hydrolysis (SN-38) + hydroxylation + glucuronidation: M+1 585.3; for Metabolite Hydrolysis (SDC-TRAP-0062) + glucuronidation: M+1 638.3; for Metabolite Hydrolysis (SDC-TRAP-0062) + oxidation + glucuronide: M+1 652.3; for Metabolite Hydrolysis (SDC-TRAP-0062) + di-oxidation + glucuronide: M+1 668.3; for Metabolite Hydrolysis (SDC-TRAP-0062) + H2O (ring opened) + glucuronide: M+1 670.3; for Metabolite Hydroxylation: M+1 896.3; for Metabolite Carboxylate form: M+1 898.3; for Metabolite Di-hydroxylation: M+1 912.4; for Metabolite Glucuronidation: M+1 1056.4
Excerpt: Metabolite Profiling and Identification: Metabolite profiling/identification for SDC-TRAP-0063 (M+1:880.3)

[6] = kinetic solubility in ganetespib placebo formulation, Lot6
[7] = kinetic solubility in ganetespib placebo formulation, Lot8
[8] = SCLC xenograft tumors, 24 hrs after drug exposure

Which results are given for `CCc1c2c(nc3ccc(OC(=O)N4CCC(CCn5ccc6cc(-n7c(O)nnc7-c7cc(C(C)C)c(O)cc7O)ccc65)CC4)cc13)-c1cc3c(c(=O)n1C2)COC(=O)[C@]3(O)CC` [SDC-TRAP-0063, 4,11-diethyl-4-hydroxy-3,14-dioxo-3,4,12,14-tetrahydro-1H-pyrano[3′,4′:6,7]indolizino[1,2-b]quinolin-9-yl 4-(2-(5-(3-(2,4-dihydroxy-5-isopropylphenyl)-5-hydroxy-4H-1,2,4-triazol-4-yl)-1H-indol-1-yl)ethyl)piperidine-1-carboxylate]?
IC50 [1]: 83 nM; IC50 [2]: 261 nM; solubility at 1 h ([3]; kinetic solubility in ganetespib placebo formulation (35% v/v tween 80, 40% v/v PEG-300, 25% v/v dehydrated alcohol), Lot6): 11.3 mg/mL (≈ 12.8 mM); solubility at 1 day [3, 6]: 10.2 mg/mL (≈ 11.6 mM); solubility at 3 days [3, 6]: 9.68 mg/mL (≈ 11 mM); solubility at 7 days [3, 6]: 7.32 mg/mL (≈ 8.32 mM); solubility at 1 h [3, 7]: 36.2 mg/mL (≈ 41.1 mM); solubility at 1 day [3, 7]: 35.3 mg/mL (≈ 40.1 mM); solubility at 3 days [3, 7]: 30 mg/mL (≈ 34.1 mM); solubility at 7 days [3, 7]: 19.7 mg/mL (≈ 22.4 mM); solubility over time (1 hr, 1 day, 3 days, 7 days) ([3]; lot 6 and lot 8, ganetespib placebo formulation (35% v/v tween 80, 40% v/v PEG-300, 25% v/v dehydrated alcohol), ambient): appear to decrease over time, although no any degradation was observed; kinetics of acetyl-histone H3 induction ([4]; SCLC xenograft tumors, 24, 72 and 96 hrs): gradual increase in H3ac levels, peaking at 96 hr; Hsp90 client proteins (EGFR, MET, CDC2) and Hsp70 expression [4, 8]: slight increase in Hsp70 with no impact on EGFR, MET or CDC2; markers for DNA damage (acetyl-histone H3, p53, p-H2AX) [4, 8]: dramatic increase in markers for DNA damage; phosphorylation of p53 ([4]; SCLC xenograft tumors, out to 96 hrs): induced by both agents, though more so with SDC-TRAP-0063; Metabolite Hydrolysis (SN-38) ([5]; Hepatocytes Dog): √; Metabolite Hydrolysis (SN-38) + H2O (carboxylate form) ([5]; Hepatocytes Dog): —; Metabolite Hydrolysis (SDC-TRAP-0062) ([5]; Hepatocytes Dog): —; Metabolite Hydrolysis (SDC-TRAP-0062) + N-dealkylation + glucuronide ([5]; Hepatocytes Dog): —; Metabolite Hydrolysis (SN-38) + glucuronidation ([5]; Hepatocytes Dog): —; Metabolite Hydrolysis (SN-38) + hydroxylation + glucuronidation ([5]; Hepatocytes Dog): —; Metabolite Hydrolysis (SDC-TRAP-0062) + glucuronidation ([5]; Hepatocytes Dog): —; Metabolite Hydrolysis (SDC-TRAP-0062) + oxidation + glucuronide ([5]; Hepatocytes Dog): —; Metabolite Hydrolysis (SDC-TRAP-0062) + di-oxidation + glucuronide ([5]; Hepatocytes Dog): —; Metabolite Hydrolysis (SDC-TRAP-0062) + H2O (ring opened) + glucuronide ([5]; Hepatocytes Dog): —; Metabolite Hydroxylation ([5]; Hepatocytes Dog): √; Metabolite Carboxylate form ([5]; Hepatocytes Dog): √; Metabolite Di-hydroxylation ([5]; Hepatocytes Dog): √; Metabolite Glucuronidation ([5]; Hepatocytes Dog): √; Metabolite Hydrolysis (SN-38) ([5]; Hepatocytes Human): —; Metabolite Hydrolysis (SN-38) + H2O (carboxylate form) ([5]; Hepatocytes Human): —; Metabolite Hydrolysis (SDC-TRAP-0062) ([5]; Hepatocytes Human): —; Metabolite Hydrolysis (SDC-TRAP-0062) + N-dealkylation + glucuronide ([5]; Hepatocytes Human): —; Metabolite Hydrolysis (SN-38) + glucuronidation ([5]; Hepatocytes Human): √; Metabolite Hydrolysis (SN-38) + hydroxylation + glucuronidation ([5]; Hepatocytes Human): —; Metabolite Hydrolysis (SDC-TRAP-0062) + glucuronidation ([5]; Hepatocytes Human): —; Metabolite Hydrolysis (SDC-TRAP-0062) + oxidation + glucuronide ([5]; Hepatocytes Human): —; Metabolite Hydrolysis (SDC-TRAP-0062) + di-oxidation + glucuronide ([5]; Hepatocytes Human): —; Metabolite Hydrolysis (SDC-TRAP-0062) + H2O (ring opened) + glucuronide ([5]; Hepatocytes Human): —; Metabolite Hydroxylation ([5]; Hepatocytes Human): —; Metabolite Carboxylate form ([5]; Hepatocytes Human): —; Metabolite Di-hydroxylation ([5]; Hepatocytes Human): —; Metabolite Glucuronidation ([5]; Hepatocytes Human): √; Metabolite Hydrolysis (SN-38) ([5]; Hepatocytes Monkey): √; Metabolite Hydrolysis (SDC-TRAP-0062) ([5]; Hepatocytes Monkey): —; Metabolite Hydrolysis (SDC-TRAP-0062) + N-dealkylation + glucuronide ([5]; Hepatocytes Monkey): —; Metabolite Hydrolysis (SN-38) + glucuronidation ([5]; Hepatocytes Monkey): √; Metabolite Hydrolysis (SN-38) + hydroxylation + glucuronidation ([5]; Hepatocytes Monkey): √; Metabolite Hydrolysis (SDC-TRAP-0062) + glucuronidation ([5]; Hepatocytes Monkey): —; Metabolite Hydrolysis (SDC-TRAP-0062) + oxidation + glucuronide ([5]; Hepatocytes Monkey): —; Metabolite Hydrolysis (SDC-TRAP-0062) + di-oxidation + glucuronide ([5]; Hepatocytes Monkey): —; Metabolite Hydrolysis (SDC-TRAP-0062) + H2O (ring opened) + glucuronide ([5]; Hepatocytes Monkey): —; Metabolite Hydroxylation ([5]; Hepatocytes Monkey): —; Metabolite Carboxylate form ([5]; Hepatocytes Monkey): —; Metabolite Di-hydroxylation ([5]; Hepatocytes Monkey): —; Metabolite Hydrolysis (SN-38) ([5]; Hepatocytes Mouse): —; Metabolite Hydrolysis (SN-38) + H2O (carboxylate form) ([5]; Hepatocytes Mouse): —; Metabolite Hydrolysis (SDC-TRAP-0062) ([5]; Hepatocytes Mouse): —; Metabolite Hydrolysis (SDC-TRAP-0062) + N-dealkylation + glucuronide ([5]; Hepatocytes Mouse): —; Metabolite Hydrolysis (SN-38) + glucuronidation ([5]; Hepatocytes Mouse): —; Metabolite Hydrolysis (SN-38) + hydroxylation + glucuronidation ([5]; Hepatocytes Mouse): —; Metabolite Hydrolysis (SDC-TRAP-0062) + glucuronidation ([5]; Hepatocytes Mouse): —; Metabolite Hydrolysis (SDC-TRAP-0062) + oxidation + glucuronide ([5]; Hepatocytes Mouse): —; Metabolite Hydrolysis (SDC-TRAP-0062) + di-oxidation + glucuronide ([5]; Hepatocytes Mouse): —
